Results from ChEMBL document CHEMBL4130414, “Asymmetric synthesis of novel triazole derivatives and their in vitro antiviral activity and mechanism of action” (Eur J Med Chem, 2017).
≈ marks a conversion by molar mass, not a printed value. Calls of active or inactive are those of the source. The calls are words filed in the database; no cut-off is given here.

Columns and labels:
[1] = Cytotoxicity against human RD cells assessed as reduction in cell viability after 3 days by MTT assay; format: cell-based
[2] = Cytotoxicity against human Hep2 cells assessed as reduction in cell viability after 3 days by MTT assay; format: cell-based; conditions: HEp-2 cells
Enterovirus A71 [3] = assay: Antiviral activity against EV71 Xiangyang-Hubei-09 infected in human RD cells assessed as inhibition of virus-induced cytopathic effect by MTT dye based assay; format: functional, organism-based
[4] = Selectivity index, ratio of CC50 for human RD cells to EC50 for EV71 Xiangyang-Hubei-09 infected in human RD cells; format: toxicity, cell-based; conditions: read-out: Ratio CC50/EC50
Coxsackievirus B3 [5] = assay: Antiviral activity against Coxsackievirus B3 (strain Nancy) infected in human HEP2 cells assessed as inhibition of virus-induced cytopathic effect by MTT dye based assay; format: functional, organism-based
[6] = Selectivity index, ratio of CC50 for human HEP2 cells to EC50 for Coxsackievirus B3 (strain Nancy) infected in human HEP cells; format: toxicity, cell-based; conditions: HEp-2 cells, read-out: Ratio CC50/EC50
Enterovirus A71 [7] = assay: Antiviral activity against EV71 Xiangyang-Hubei-09 infected in human RD cells assessed as inhibition of virus-induced cytopathic effect at 16 ug/ml treated 1 hr post viral infection measured after 48 hrs by MTT dye based assay relative to control; format: functional; conditions: Enterovirus A, Xiangyang-Hubei-09, RD
Coxsackievirus B3 [8] = assay: Antiviral activity against Coxsackievirus B3 (strain Nancy) infected in human HEP2 cells assessed as inhibition of virus-induced cytopathic effect at 16 ug/ml after 48 hrs by MTT dye based assay; format: functional, organism-based
Enterovirus A71 [9] = assay: Antiviral activity against EV71 Xiangyang-Hubei-09 infected in human RD cells assessed as alteration in viral cell morphology at 16 ug/ml after 48 hrs; format: functional, organism-based
[10] = Enterovirus A, Xiangyang-Hubei-09, RD, read-out: EC50
[11] = Enterovirus B, Nancy, HEp-2, read-out: EC50

| Structure (SMILES) | CC50 at 72 h [1] [µg/mL] | CC50 at 72 h [2] [µg/mL] | EC50 (Coxsackievirus B3 [5]; [11]) [µg/mL] | selectivity ratio [6] | further results |
| --- | --- | --- | --- | --- | --- |
| CCC[C@@H](CCn1cncn1)c1ccc(C)cc1 | 74.1 (≈ 304 µM) | 71.3 (≈ 293 µM) | 10.3 (≈ 42.3 µM) | 6.9 | EC50 (Enterovirus A71 [3]; [10]): 10.9 µg/mL (≈ 44.8 µM); selectivity ratio [4]: 6.8 |
| c1ccc(C[C@@H](CCn2cncn2)c2ccccc2)cc1 | 56 (≈ 202 µM) | 55.9 (≈ 202 µM) | – | – | – |
| CCCC[C@H](CCn1cncn1)c1ccccc1 | 48.3 (≈ 198 µM) | 50.2 (≈ 206 µM) | 10.4 (≈ 42.7 µM) | 4.8 | EC50 (Enterovirus A71 [3]; [10]): 12.1 µg/mL (≈ 49.7 µM); selectivity ratio [4]: 4 |
| CC[C@H](CCn1cncn1)c1ccc(Cl)cc1 | 57 (≈ 228 µM) | 50.6 (≈ 203 µM) | 13.5 (≈ 54.1 µM) | 3.7 | EC50 (Enterovirus A71 [3]; rd): Not Active |
| Cc1ccc([C@@H](CCn2cncn2)Cc2ccccc2)cc1 | 109 (≈ 373 µM) | 83.3 (≈ 286 µM) | – | – | – |
| CC[C@H](CCn1cncn1)c1ccccc1 | 99.8 (≈ 464 µM) | 97.7 (≈ 454 µM) | – | – | – |
| CCCC[C@H](CCn1cncn1)c1ccc(Cl)cc1Cl | 10.1 (≈ 32.3 µM) | 13.4 (≈ 42.9 µM) | – | – | – |
| CC[C@@H](CCn1cncn1)c1ccc(OC)cc1 | 115 (≈ 469 µM) | 146 (≈ 596 µM) | 10.1 (≈ 41.2 µM) | 14.5 | inhibition (Enterovirus A71 [3]): Dose-dependent effect; EC50 (Enterovirus A71 [3]; [10]): 5.3 µg/mL (≈ 21.6 µM); selectivity ratio [4]: 21.7; inhibition (Coxsackievirus B3 [5]): Dose-dependent effect; inhibition at 16 µg/mL (Enterovirus A71 [7]): 88.1%; inhibition (Coxsackievirus B3 [8]): Active; inhibition (Enterovirus A71 [9]): Active |
| CC[C@H](CCn1cncn1)c1ccc(F)cc1 | 110 (≈ 473 µM) | 103 (≈ 442 µM) | – | – | EC50 (Enterovirus A71 [3]; rd): Not Active; EC50 (Coxsackievirus B3 [5]): Not Active |
| CCCC[C@@H](CCn1cncn1)c1ccc(Cl)cc1Cl | 1.9 (≈ 6.08 µM) | 6.5 (≈ 20.8 µM) | – | – | – |
| Clc1ccc([C@@H](CCn2cncn2)Cc2ccccc2)c(Cl)c1 | 6.5 (≈ 18.8 µM) | 11.1 (≈ 32.1 µM) | – | – | – |
| CCC[C@@H](CCn1cncn1)c1ccc(Cl)cc1 | 40.8 (≈ 155 µM) | 36.6 (≈ 139 µM) | – | – | – |
| CC[C@@H](CCn1cncn1)c1ccc(F)cc1 | 91.6 (≈ 393 µM) | 90.3 (≈ 387 µM) | – | – | EC50 (Enterovirus A71 [3]; rd): Not Active; EC50 (Coxsackievirus B3 [5]): Not Active |
| CCCC[C@@H](CCn1cncn1)c1ccc(OC)cc1 | 39.4 (≈ 144 µM) | 31.6 (≈ 116 µM) | – | – | – |
| Clc1ccc([C@H](CCn2cncn2)Cc2ccccc2)c(Cl)c1 | 1.9 (≈ 5.49 µM) | 4.9 (≈ 14.2 µM) | – | – | – |
| CC[C@@H](CCn1cncn1)c1ccccc1 | 91.2 (≈ 424 µM) | 89.9 (≈ 418 µM) | – | – | – |
| CCC[C@H](CCn1cncn1)c1ccc(OC)cc1 | 59.3 (≈ 229 µM) | 59.6 (≈ 230 µM) | – | – | – |
| CCCC[C@H](CCn1cncn1)c1ccc(Cl)cc1 | 20.3 (≈ 73.1 µM) | 20.2 (≈ 72.7 µM) | – | – | – |
| c1ccc(C[C@H](CCn2cncn2)c2ccccc2)cc1 | 55.4 (≈ 200 µM) | 60.9 (≈ 220 µM) | 14.9 (≈ 53.7 µM) | 4.1 | EC50 (Enterovirus A71 [3]; [10]): 12.7 µg/mL (≈ 45.8 µM); selectivity ratio [4]: 4.4 |
| c1ccc(C(CCn2cncn2)C2CCCCC2)cc1 (single isomer, unassigned; 40) | 9.2 (≈ 34.2 µM) | 21.8 (≈ 80.9 µM) | 4.7 (≈ 17.4 µM) | 4.6 | EC50 (Enterovirus A71 [3]; rd): Not Active |
| Cc1ccc([C@H](CCn2cncn2)Cc2ccccc2)cc1 | 117 (≈ 402 µM) | 152 (≈ 522 µM) | 13.6 (≈ 46.7 µM) | 11.2 | EC50 (Enterovirus A71 [3]; [10]): 9.2 µg/mL (≈ 31.6 µM); selectivity ratio [4]: 12.7 |
| CCCC[C@H](CCn1cncn1)c1ccc(F)cc1 | 35.2 (≈ 135 µM) | 38.5 (≈ 147 µM) | – | – | – |
